{"source": "ChEMBL document CHEMBL1146716", "about": "“(4-Piperidinylphenyl)aminoethyl amides as a novel class of non-covalent cathepsin K inhibitors” (Bioorg Med Chem Lett, 2004)", "key": {"Cathepsin B": {"molecular_target": "Cathepsin B (Homo sapiens, UniProt P07858)", "assay": "Inhibitory activity against recombinant human cathepsin B"}, "Procathepsin L [1]": {"molecular_target": "T1, Procathepsin L (Homo sapiens, UniProt P07711)", "T1 sequence (P07711 whole entry)": "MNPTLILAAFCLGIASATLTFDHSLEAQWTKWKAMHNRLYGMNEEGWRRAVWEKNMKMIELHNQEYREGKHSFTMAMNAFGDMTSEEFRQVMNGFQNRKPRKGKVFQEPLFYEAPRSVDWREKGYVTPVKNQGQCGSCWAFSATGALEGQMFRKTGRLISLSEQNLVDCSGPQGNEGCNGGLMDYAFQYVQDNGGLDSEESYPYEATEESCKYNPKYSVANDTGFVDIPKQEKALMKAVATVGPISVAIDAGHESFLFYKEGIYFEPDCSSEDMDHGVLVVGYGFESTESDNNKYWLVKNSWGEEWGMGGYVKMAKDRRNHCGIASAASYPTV", "assay": "Inhibitory activity against recombinant human cathepsin L"}, "Cathepsin K": {"molecular_target": "T2, Cathepsin K (Homo sapiens, UniProt P43235)", "T2 sequence (P43235 whole entry)": "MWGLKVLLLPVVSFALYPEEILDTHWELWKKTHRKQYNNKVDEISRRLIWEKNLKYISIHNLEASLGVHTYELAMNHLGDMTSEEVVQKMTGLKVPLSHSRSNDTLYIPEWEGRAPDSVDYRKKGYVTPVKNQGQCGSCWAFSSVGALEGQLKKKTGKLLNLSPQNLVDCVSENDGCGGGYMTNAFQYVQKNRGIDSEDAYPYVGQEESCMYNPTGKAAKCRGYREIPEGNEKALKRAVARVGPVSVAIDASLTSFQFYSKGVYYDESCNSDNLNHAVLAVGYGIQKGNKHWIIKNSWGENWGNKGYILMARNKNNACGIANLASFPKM", "assay": "Inhibitory activity against recombinant human cathepsin K"}, "Homo sapiens": {"species_on_record": "Homo sapiens", "assay": "Inhibitory activity against bone resorption in human", "type": "functional", "conditions": "Bone element"}, "Mus musculus": {"species_on_record": "Mus musculus", "assay": "Inhibitory activity against bone resorption in mouse", "type": "functional"}, "Procathepsin L [2]": {"molecular_target": "T1, Procathepsin L", "assay": "Inhibitory activity against recombinant human cathepsin L (1.2 nM)"}}, "note": "Peptide text beside a SMILES is read from it. * marks the point of attachment. Cbz = O=C(OCc1ccccc1)*", "data": [{"molecule": "O=C(N[C@H](Cc1ccccc1)C(=O)N[C@@H](CCc1ccccc1)CNc1ccc(N2CCCCC2)cc1)OCc1ccccc1", "values": [{"measurement": "Ki", "setting": "Cathepsin B", "value": 167, "unit": "nM"}, {"measurement": "IC50", "setting": "Procathepsin L [1]", "value": 1, "unit": "nM"}, {"measurement": "IC50", "setting": "Cathepsin K", "value": 3, "unit": "nM"}]}, {"molecule": "O=C(N[C@H](Cc1ccc(O)cc1)C(=O)N[C@@H](CCc1ccccc1)CNc1ccc(N2CCCCC2)cc1)OCc1ccccc1", "values": [{"measurement": "Ki", "setting": "Cathepsin B", "value": 106, "unit": "nM"}, {"measurement": "IC50", "setting": "Procathepsin L [1]", "value": 1, "unit": "nM"}, {"measurement": "IC50", "setting": "Cathepsin K", "value": 8, "unit": "nM"}]}, {"molecule": "O=C(N[C@H](CCc1ccccc1)C(=O)N[C@@H](CCc1ccccc1)CNc1ccc(N2CCCCC2)cc1)OCc1ccccc1", "values": [{"measurement": "Ki", "setting": "Cathepsin B", "value": 9660, "unit": "nM"}, {"measurement": "IC50", "setting": "Procathepsin L [1]", "value": 9, "unit": "nM"}, {"measurement": "IC50", "setting": "Cathepsin K", "value": 14, "unit": "nM"}]}, {"molecule": "CC(C)C[C@H](NC(=O)OCc1ccccc1)C(=O)N[C@H](CNc1ccc(N2CCOCC2)cc1)Cc1ccccc1", "values": [{"measurement": "IC50", "setting": "Procathepsin L [1]", "value": 2, "unit": "nM"}, {"measurement": "IC50", "setting": "Cathepsin K", "value": 15, "unit": "nM"}]}, {"molecule": "O=C(CNC(=O)OCc1ccccc1)N[C@@H](CCc1ccccc1)CNc1ccc(N2CCCCC2)cc1", "values": [{"measurement": "Ki", "setting": "Cathepsin B", "value": "> 10000", "unit": "nM"}, {"measurement": "IC50", "setting": "Procathepsin L [1]", "value": "> 10000", "unit": "nM"}, {"measurement": "IC50", "setting": "Cathepsin K", "value": "> 10000", "unit": "nM"}]}, {"molecule": "O=C(N[C@@H](CCc1ccccc1)CNc1ccc(N2CCCCC2)cc1)C1CCCN1C(=O)OCc1ccccc1", "note": "(stereo not given in full)", "values": [{"measurement": "Ki", "setting": "Cathepsin B", "value": "> 10000", "unit": "nM"}, {"measurement": "IC50", "setting": "Procathepsin L [1]", "value": 7840, "unit": "nM"}, {"measurement": "IC50", "setting": "Cathepsin K", "value": 12, "unit": "nM"}]}, {"molecule": "CC(C)[C@@H](NC(=O)OCc1ccccc1)C(=O)N[C@@H](CCc1ccccc1)CNc1ccc(N2CCCCC2)cc1", "values": [{"measurement": "Ki", "setting": "Cathepsin B", "value": 7, "unit": "nM"}, {"measurement": "IC50", "setting": "Procathepsin L [1]", "value": 1, "unit": "nM"}, {"measurement": "IC50", "setting": "Cathepsin K", "value": 4, "unit": "nM"}, {"measurement": "IC50", "setting": "Homo sapiens", "value": 560, "unit": "nM"}, {"measurement": "IC50", "setting": "Mus musculus", "value": 330, "unit": "nM"}]}, {"molecule": "CC(C)C[C@H](NC(=O)OCc1ccccc1)C(=O)N[C@H](CNc1ccc(-c2ccccc2)cc1)Cc1ccccc1", "values": [{"measurement": "IC50", "setting": "Procathepsin L [1]", "value": 32, "unit": "nM"}, {"measurement": "IC50", "setting": "Cathepsin K", "value": 706, "unit": "nM"}]}, {"molecule": "CSCC[C@@H](NC(=O)OCc1ccccc1)C(=O)N[C@@H](CCc1ccccc1)CNc1ccc(N2CCCCC2)cc1", "values": [{"measurement": "Ki", "setting": "Cathepsin B", "value": 12, "unit": "nM"}, {"measurement": "IC50", "setting": "Procathepsin L [1]", "value": 36, "unit": "nM"}, {"measurement": "IC50", "setting": "Cathepsin K", "value": 3, "unit": "nM"}]}, {"molecule": "C[C@@H](NC(=O)OCc1ccccc1)C(=O)N[C@@H](CCc1ccccc1)CNc1ccc(N2CCCCC2)cc1", "values": [{"measurement": "Ki", "setting": "Cathepsin B", "value": 2090, "unit": "nM"}, {"measurement": "IC50", "setting": "Procathepsin L [1]", "value": 4110, "unit": "nM"}, {"measurement": "IC50", "setting": "Cathepsin K", "value": 9, "unit": "nM"}]}, {"molecule": "CC(C)C[C@H](NC(=O)OCc1ccccc1)C(=O)N[C@H](CNc1ccc(N2CCCCC2)cc1)Cc1ccccc1", "values": [{"measurement": "IC50", "setting": "Procathepsin L [1]", "value": 2, "unit": "nM"}, {"measurement": "IC50", "setting": "Cathepsin K", "value": 10, "unit": "nM"}, {"measurement": "IC50", "setting": "Homo sapiens", "value": 1000, "unit": "nM"}, {"measurement": "IC50", "setting": "Mus musculus", "value": 1000, "unit": "nM"}]}, {"molecule": "O=C(N[C@H](CC1C=Nc2ccccc21)C(=O)N[C@@H](CCc1ccccc1)CNc1ccc(N2CCCCC2)cc1)OCc1ccccc1", "note": "(stereo not given in full)", "values": [{"measurement": "Ki", "setting": "Cathepsin B", "value": 3360, "unit": "nM"}, {"measurement": "IC50", "setting": "Procathepsin L [1]", "value": 1, "unit": "nM"}, {"measurement": "IC50", "setting": "Cathepsin K", "value": 48, "unit": "nM"}]}, {"molecule": "CC(C)C[C@@H](NC(=O)OCc1ccccc1)C(=O)N[C@@H](CCc1ccccc1)CNc1ccc(N2CCCCC2)cc1", "values": [{"measurement": "Ki", "setting": "Cathepsin B", "value": 658, "unit": "nM"}, {"measurement": "IC50", "setting": "Procathepsin L [1]", "value": 2, "unit": "nM"}, {"measurement": "IC50", "setting": "Cathepsin K", "value": 5, "unit": "nM"}]}, {"molecule": "CC(C)C[C@H](NC(=O)OCc1ccccc1)C(=O)N[C@H](CNc1ccccc1)Cc1ccccc1", "values": [{"measurement": "IC50", "setting": "Procathepsin L [1]", "value": 230, "unit": "nM"}, {"measurement": "IC50", "setting": "Cathepsin K", "value": 1100, "unit": "nM"}]}, {"molecule": "CSCC[C@@H](C=O)NC(=O)[C@H](CC(C)C)NC(=O)OCc1ccccc1", "note": "(Cbz-Leu-Met-aldehyde)", "values": [{"measurement": "IC50", "setting": "Procathepsin L [1]", "value": 1.3, "unit": "nM"}, {"measurement": "IC50", "setting": "Procathepsin L [2]", "value": 5, "unit": "nM"}]}, {"molecule": "CC(C)C[C@H](NC(=O)OCc1ccccc1)C(=O)N[C@H](C=O)Cc1ccccc1", "note": "(Cbz-Leu-Phe-aldehyde)", "values": [{"measurement": "IC50", "setting": "Procathepsin L [1]", "value": 20, "unit": "nM"}]}]}
